Results on 2 molecules are retold here after patent US11801272B2, “Bacillus strains improving health and performance of production animals” (Novozymes A/S, priority 2015, dated 2023).

For one test, the system named is B. subtilis DSM 29871. The test is classed as cell-based. Conditions: Bacillus subtilis.
The test system of test [1] is B. amyloliquefaciens DSM 29869. It is filed as cell-based. The settings on record: Bacillus amyloliquefaciens, DSM29869, 37° C., 20-24 h.
The next test deals with B. subtilis DSM 29870. It is filed as cell-based. The settings on record: Bacillus subtilis.
A further test deals with Clostridium perfringens. The test is classed as in vivo, broiler chickens Cobb×Cobb. The settings on record: infected, bacitracin 50 ppm.
Setting [2] is: Trial 1, DSM 29870 1.10^9 CFU/kg of feed.
The mark [3] stands for this setting: Trial 3, DSM 29870 5.10^8 CFU/kg of feed.

Structures are written as SMILES. ≈ marks a conversion by molar mass, not a printed value. Read-outs that look alike come from different tables or passages of the source. Where a SMILES comes first, the peptide text is derived from it. Bridges are numbered along the chain shown (N, C = ends). [ ]: non-standard residue; d: D form. The star is where a group is joined. Ileψ(thiazoline)Cys = CC[C@H](C)[C@H](N)C1=N[C@H](C(=O)*)CS1; dOrn = NCCC[C@@H](N)C(=O)O

In general, MIC refers to the lowest concentration found to suppress growth. On to `CN[C@H](CC(C)C)C(=O)N[C@H]1C(=O)N[C@@H](CC(N)=O)C(=O)N[C@H]2C(=O)N[C@H]3C(=O)N[C@H](C(=O)N[C@H](C(=O)O)c4cc(O)cc(O)c4-c4cc3ccc4O)[C@H](O)c3ccc(c(Cl)c3)Oc3cc2cc(c3O[C@@H]2O[C@H](CO)[C@@H](O)[C@H](O)[C@H]2O[C@H]2C[C@](C)(N)[C@H](O)[C@H](C)O2)Oc2ccc(cc2Cl)[C@H]1O` [Vancomycin], for which the minimal inhibitory concentration (MIC) in the test on B. subtilis DSM 29871 (DSM29871, read-out: MIC 1) was 0.25 mg/L (≈ 0.173 µM); with B. subtilis DSM 29871 (DSM29871, read-out: MIC 2) it was 0.25 mg/L (≈ 0.173 µM); in the test on B. subtilis DSM 29871 (DSM29871, read-out: MIC 3), 0.25 mg/L (≈ 0.173 µM); in test [1] (biological replicate 1, read-out: MIC 1), 0.25 mg/L (≈ 0.173 µM); in test [1] (biological replicate 2, read-out: MIC 2) it was 0.25 mg/L (≈ 0.173 µM); in test [1] (biological replicate 3, read-out: MIC 3) it was 0.25 mg/L (≈ 0.173 µM). The minimum inhibitory concentration (MIC) in the test with B. subtilis DSM 29870 (DSM29870, read-out: MIC 1) stood at 0.25 mg/L (≈ 0.173 µM); in the test with B. subtilis DSM 29870 (DSM29870, read-out: MIC 2), 0.25 mg/L (≈ 0.173 µM); with B. subtilis DSM 29870 (DSM29870, read-out: MIC 3), 0.25 mg/L (≈ 0.173 µM).

With `CC[C@H](C)[C@H](N)C1=N[C@H](C(=O)N[C@@H](CC(C)C)C(=O)N[C@H](CCC(=O)O)C(=O)N[C@H](C(=O)N[C@H]2CCCCNC(=O)[C@H](CC(N)=O)NC(=O)[C@@H](CC(=O)O)NC(=O)[C@H](Cc3cnc[nH]3)NC(=O)[C@@H](Cc3ccccc3)NC(=O)[C@H]([C@@H](C)CC)NC(=O)[C@@H](CCCN)NC2=O)[C@@H](C)CC)CS1` [bacitracin] ({Ileψ(thiazoline)Cys}-L[dE]IK[dOrn]I[dF]H[dD]N; lactam 4-C), the “Dead birds with necrotic enteritis lesions (d1-d28)” value in the test with Clostridium perfringens (setting [2]) came to 1.6b %; with Clostridium perfringens (Trial 2, DSM 29870 5.10^8 CFU/kg of feed), 6.3c %; with Clostridium perfringens (setting [3]), 4.7bc %. The “Total mortality (d1-d28)” value turned out to be 5.0b % with Clostridium perfringens (setting [2]) and 15.0a % in the test on Clostridium perfringens (setting [3]).
